Patent US6338963B1, “Use of carbon monoxide dependent guanylyl cyclase modifiers to stimulate neuritogenesis” (NeoTherapeutics, Inc., priority 1994, dated 2002)

Tests used:
PC12 cells = test: Neuritogenesis in PC12 cells; assay type: cell-based, rat; conditions: NGF 40 ng/ml
Experimental: Much of the work performed in the characterization of the compounds of the present invention involved the use of PC12 cells. These cells are derived from a rat pheochromocytoma and when grown in the presence of NGF, extend neurites, cease cell division and assume many characteristics of sympathetic neurons. When cultured in the absence of nerve growth factor (NGF), few PC12 cells have neurites greater than one cell diameter. Addition of saturating concentrations of NGF for 48 hours stimulates neurite outgrowth in about 20-35% of the cells. Because they constitute a homogeneous population of neuronal-like cells, without contaminating astroglia type cells, it is possible to study the direct effects of the purine based compounds on neurite outgrowth in these cells.
Cells cultured in RPMI 1640 with 1.5% horse serum and 1.5% fetal bovine serum were re-plated onto poly-ornithine coated 24-well culture plates (2.5×10^4 cells per well). AIT-082 and NGF were added to the various cultures immediately upon plating. After 48 hours, medium was removed and the cells irnmediately fixed in 10% formalin and PBS for 10 minutes. Cells and neurites were counted within 2 days of fixation.
A neurite was defined as a process extending from the cell at least 1 cell body diameter in length and displaying a growth cone at its tip. For each treatment, 2 representative microscope fields were counted from each of 6 sister cultures receiving identical treatments. The total number of cells counted per well (approximately 100 cells) and the total number of cells containing neurites in each well were used to determine fraction of neurite-bearing cells. The mean values (±SEM) were then determined for each of the treatments. To facilitate comparison neurite outgrowth was expressed relative to the proportion of cells bearing neurites in the presence of NGF alone (NGF=100%). The effects of compounds with and without NGF were compared by analysis of variance (ANOVA) followed by Tukey's test for significance.
The results are shown in FIG. 3 where the curve represents different levels of AIT-082 plus saturating concentrations (40 ng/ml) NGF. The center horizontal line represents control values for cells cultured in the presence of 40 ng/ml NGF alone. Upper and lower horizontal lines are indicative of confidence limits of NGF alone as determined using standard statistical methods.

NGF mRNA = test: Northern/slot blot of neurotrophin mRNA from astrocytes: NGF; assay type: cell-based, NIH Swiss mice; parameters: key to NGF mRNA: The conditions which produced a detectable amount of each of the neurotrophin mRNAs are indicated by a “+”; a “++” indicating that at least twice the detectable amount was present; Those blots which were negative are indicated by a “−”; conditions: NGF 40 ng/ml, 24 hours
Experimental: (§1) Induction of neurotrophin mRNA was determined by northern blot analysis of astrocytes cultured with AIT-082, NGF, or both. The cells were harvested and RNA extracted at 24 hours after treatment.
(§2) More particularly, astrocytes from the cerebral cortex of NIH Swiss mice (Harlan) were isolated. Briefly, newborn pups (0-24 hours) were decapitated. Their brains were removed under aseptic conditions and were placed in modified Dulbecco's medium (DMEM) containing 20% heat-inactivated horse serum (Hyclone) (“complete medium”). The neopallium was then dissected from each cerebral hemisphere and minced into 1 mm cubes.
(§3) The astrocytes were then isolated by mechanical dissociation. The cubes were vortexed at maximum speed for one minute. The cell suspension was then passed first through 75 mm Nitex then through 10 mm Nitex. The resulting cell suspension was diluted in complete medium to a final concentration of one brain per 10 ml of complete medium. Ten milliliters of the diluted cell suspension was added to each 100 mm Falcon tissue culture plate (Fisher). After 3 days the medium was replaced with 10 ml fresh complete medium and subsequently was replaced twice weekly with DMEM containing 10% heat inactivated horse serum (“growth medium”). After two weeks in culture the astrocytes formed a confluent monolayer.
(§4) For RNA extraction, astrocytes were trypsinized. The astrocytes were then replated onto 100 mm PORN coated plates at a cell density of 10^6 cells per plate (10 ml growth medium). After 2 hrs PBS, guanosine (Guo), or GTP at 10 mM were added to the appropriate plates. Total RNA was harvested from 1.5×10^7 cells for each treatment, 4 and 24 hrs after treatment using TRIzol reagent and supplier protocol (GIBCO BRL/Life Technologies, Inc.). For slot blots, total RNA was bound to Hybond-N filters (Amersham/United States Biochemicals) as described in Transfer and Immobilization of Nucleic Acids and Proteins to S & S Solid Supports (S and S Protocols: Schleicher & Schuell, New Hampshire, USA). Northern blots were also performed using […] total RNA from each sample. These were electrophoresed in 1% agarose gels containing formaldehyde and blotted onto Hybond-N filters according to S and S protocols.
(§5) The blots were probed with ^32P-labeled cDNA (NGF, NT-3 and BDNF probes) or oligonucleotide probe (FGF-2) by hybridization in Piperazine-N,N′-bis-(2-ethanesulfonic acid) (PIPES) buffer (50 mM PIPES, pH 6.8; 50 mM NaH2PO4; 0.1 M NaCl; 5% SDS and 1 mM EDTA) overnight at 50° C. […] Various concentrations ([…] of total RNA), as determined by spectrophotometry, of each sample were blotted and probed so that quantification could be done after insuring a linear film response. Quantification was performed using MCID Image Analysis (St. Catherine's, Ontario, Canada). […]

FGF-2 mRNA = test: Northern/slot blot of neurotrophin mRNA from astrocytes: FGF-2; assay type: cell-based, NIH Swiss mice; parameters: key to FGF-2 mRNA: The conditions which produced a detectable amount of each of the neurotrophin mRNAs are indicated by a “+”; a “++” indicating that at least twice the detectable amount was present; Those blots which were negative are indicated by a “−”; conditions: NGF 40 ng/ml, 24 hours
Experimental: as §1, §2, §3, §4, §5

BDNF mRNA = test: Northern blot of neurotrophin mRNA from astrocytes: BDNF; assay type: cell-based, NIH Swiss mice; parameters: key: The conditions which produced a detectable amount of each of the neurotrophin mRNAs are indicated by a “+”; a “++” indicating that at least twice the detectable amount was present; Those blots which were negative are indicated by a “−”; conditions: NGF 40 ng/ml, 24 hours
Experimental: as §1, §2, §3
(§6) For RNA extraction, astrocytes were trypsinized. The astrocytes were then replated onto 100 mm PORN coated plates at a cell density of 10^6 cells per plate (10 ml growth medium). […]
as §5

NT-3 mRNA = test: Northern blot of neurotrophin mRNA from astrocytes: NT-3; assay type: cell-based, NIH Swiss mice; parameters: key: The conditions which produced a detectable amount of each of the neurotrophin mRNAs are indicated by a “+”; a “++” indicating that at least twice the detectable amount was present; Those blots which were negative are indicated by a “−”; conditions: NGF 40 ng/ml, 24 hours
Experimental: as §1, §2, §3, §6, §5

[1] = tested on: basal forebrain cholinergic neurons; conditions: mouse NGF 25 μg/ml, Barnett et al.; cited from earlier work

NGF: nerve growth factor
Proportion of cells bearing neurites, NGF alone (PC12 cells; Methemoglobin 1 μM): 0.2 ± 0.02 | Proportion of cells bearing neurites, NGF alone (PC12 cells; Methylene Blue 5 μM): 0.24 ± 0.03 | Proportion of cells bearing neurites, NGF alone (PC12 cells; Zn Protoporphyrin IX 1 μM): 0.22 ± 0.03 | Proportion of cells bearing neurites, NGF alone (PC12 cells; no inhibitor, 48 hours): 0.2 ± 0.02 | NGF mRNA (NGF mRNA): − | FGF-2 mRNA (FGF-2 mRNA): − | BDNF mRNA (BDNF mRNA): + | NT-3 mRNA (NT-3 mRNA): − | rescue of ChAT-positive cells following the FFT lesion [1]: robust rescue effect
